In brackets after ≈: the same amount, converted by molar mass.
How the values were obtained:
[1] = system: Pseudomonas aeruginosa (PRD-10); assay: Minimum inhibitory concentration (MIC), bacteria in nutrient agar; assay type: cell-based, Pseudomonas aeruginosa ATCC 15442; conditions: 48 hours
Method: (§1) The minimum inhibitory concentration (MIC) for the compounds listed in Table I is determined for 9 bacteria, using nutrient agar, and 7 yeast and fungi, using malt yeast agar. A one percent solution of the test compound is prepared in a mixture of acetone and water.
(§2) Nutrient agar is prepared at pH 6.8, representing a neutral medium, and at pH 8.2, representing an alkaline medium. The nutrient agars are prepared by adding 23 g of nutrient agar to one liter of deionized water. In addition, the alkaline medium is prepared by adjusting a 0.04M solution of N-[tris-(hydroxymethyl)methyl]glycine buffered deionized water with concentrated sodium hydroxide to a pH of 8.5.
(§3) The test tubes containing the agar are cooled in a water bath until the temperature of the agar is 48° C. Then, an appropriate amount of the one percent solution of the test compound is added (except in the controls where no compound is added) to the respective test tubes so that the final concentrations are 500, 250, 100, 50, 25, 10, 5, 2.5, 1.0 and zero parts per million of the test compound in the agar, thus having a known concentration of test compound dispersed therein. The contents of the test tubes are then transferred to respective petri plates. After drying for 24 hours, the petri plates containing nutrient agar are inoculated with bacteria and those containing malt yeast agar are inoculated with yeast and fungi.
(§4) The inoculation with bacteria is accomplished by using the following procedure. Twenty-four hour-cultures of each of the bacteria are prepared by incubating the respective bacteria in tubes containing nutrient broth for 24 hours at 30° C. in a shaker. Dilutions of each of the 24 hour-cultures are made so that nine separate suspensions (one for each of the nine test bacteria) are made, each containing 10^8 colony forming units (CFU) per mL of suspension of a particular bacteria. Aliquots of 0.3 mL of each of the bacterial suspensions are used to fill the individual wells of Steer's Replicator. For each microbial suspension, 0.3 mL was used to fill three wells (i.e., three wells of 0.3 mL each) so that for the nine different bacteria, 27 wells are filled. The Steer's Replicator is then used to inoculate both the neutral and alkaline pH nutrient agar petri plates.
(§5) The inoculated petri plates are incubated at 30° C. for 48 hours and then read to determine if the test compound which is incorporated into the agar prevented growth of the respective bacteria.
(§6) Table II lists the bacteria, yeast and fungi used in the MIC test described above along with their respective American Type Culture Collection (ATCC) identification numbers.
(§7) In Tables III and IV, the MIC values of the compounds described in Table I as compared to the MIC of a standard commercial preservative (with 1-(3-chloroallyl)-3,5,7-triaza-1-azoniaadamantane chloride as the active agent and referred to in Tables III and IV as "STANDARD I") are set forth for the bacteria organisms and yeast/fungi organisms which are listed in Table II.

Bacillus subtilis (Bs) = assay: as above; assay type: cell-based, Bacillus subtilis ATCC 8473; conditions: 48 hours
Method: as §1, §2, §3, §4, §5, §6, §7

[2] = system: Enterobacter aerogenes (Ea); assay: as above; assay type: cell-based, Enterobacter aerogenes ATCC 13048; conditions: Klebsiella aerogenes, 48 hours
Method: as §1, §2, §3, §4, §5, §6, §7

[3] = system: Aureobasidium pullulan (Ap); assay: Minimum inhibitory concentration (MIC), yeast/fungi in malt yeast agar; assay type: cell-based, Aureobasidium pullulan ATCC 16622; conditions: 30° C., read after 48 hours for yeast and 72 hours for fungi
Method: as §1
(§8) Malt yeast agar is prepared by adding 3 g yeast extract and 45 g malt agar per liter of deionized water. The specific agar is dispensed in 30 mL aliquots into 25×200 mm test tubes, capped and autoclaved for 15 minutes at 115° C.
as §3
(§9) The inoculation with the yeast and fungi is accomplished as follows. Cultures of yeast and fungi are incubated for seven days on malt yeast agar at 30° C. These cultures are used to prepare suspensions by the following procedure. A suspension of each organism is prepared by adding 10 mL of sterile saline and 10 microliters of octylphenoxy polyethoxy ethanol to the agar slant of yeast or fungi. The sterile saline/octylphenoxy polyethoxy ethanol solution is then agitated with a sterile swab to suspend the microorganism grown on the slant. Each resulting suspension is diluted into sterile saline (1 part suspension to 9 parts sterile saline). Aliquots of these dilutions are placed in individual wells of Steer's Replicator and petri plates inoculated as previously described. The petri plates are incubated at 30° C. and read after 48 hours for yeast and 72 hours for fungi.
as §6, §7

Trichoderma viride (Tv) = assay: as above; assay type: cell-based, Trichoderma viride ATCC 8678; conditions: 30° C., 72 hours for fungi
Method: as §1, §8, §3, §9, §6, §7

[4] = system: Staphylococcus aureus (Sa); assay: Minimum inhibitory concentration (MIC), bacteria in nutrient agar; assay type: cell-based, Staphylococcus aureus ATCC 6538; conditions: 48 hours
Method: as §1, §2, §3, §4, §5, §6, §7

[5] = system: Saccharomyces cerevisiae (Sc); assay: Minimum inhibitory concentration (MIC), yeast/fungi in malt yeast agar; assay type: cell-based, Saccharomyces cerevisiae ATCC 4105; conditions: 30° C., 48 hours for yeast
Method: as §1, §8, §3, §9, §6, §7

Fusarium oxysporum (Fo) = assay: as above; assay type: cell-based, Fusarium oxysporum ATCC 48112; conditions: 30° C., 72 hours for fungi
Method: as §1, §8, §3, §9, §6, §7

marine organisms = assay: Marine antifouling activity, coated test panels exposed to marine environment; conditions: scale 10 (completely free of growth) to 0 (completely covered); for Marine Antifouling Rating, 6 Week Test, Bottom Panel / Marine Antifouling Rating, 6 Week Test, Top Panel: 6 weeks; for Marine Antifouling Rating, 6 Week Test, Bottom Panel / Marine Antifouling Rating, 15 Week Test, Bottom Panel: bottom panel (black background); for Marine Antifouling Rating, 6 Week Test, Top Panel / Marine Antifouling Rating, 15 Week Test, Top Panel: top panel (white background); for Marine Antifouling Rating, 15 Week Test, Bottom Panel / Marine Antifouling Rating, 15 Week Test, Top Panel: 15 weeks
Method: Test panels are prepared from clear, rigid polyvinyl chloride film that is 0.381×10^-3 m thick and has one textured surface. The test panels are 0.1524 m by 0.1524 m squares that have 0.00635 m holes punched at corners on 0.127 m centers. A 0.102 square template, with a 0.067 m diameter hole at the center, is attached to the center of the textured surface of the test panels.
A candidate marine antifoulant compound (1.0 g) is stirred into a resinous latex binder (9.0 g). A portion of the compound/binder mixture (1.5 g) is added to the center of the test panel and uniformly spread over the circular area inside the template.
Water is added dropwise as needed to properly spread the compound/binder mixture. The template prevents the compound/binder mixture from spreading beyond the uncovered area. […] The template is then removed. The test panel is then allowed to dry for 8 to 12 hours at room temperature.
Two test panels are prepared for each candidate marine antifoulant compound. Two control test panels are also prepared by only treating with the resinous latex binder. One test panel of each candidate marine […] compound is attached over a white background to the topside of an exposure support apparatus. The second test panel is attached over a black background to the underside of the exposure support apparatus. The exposure support apparatus is placed horizontally 0.0254 m under a marine surface with the white background topside facing up.
After being removed from the exposure support apparatus, each test panel is inspected and rated for marine organism growth on both the treated and untreated areas of the test panel. The marine organisms present on the treated and untreated areas are noted. The presence of algae spores and bacterial slime are noted but not included in rating each test panel. The test panels are rated on a scale from 10 (representing completely free of marine organism growth) to 0 (representing completely covered with marine organism growth).
In addition, test panels were prepared using tributyl tin oxide, a known marine antifouling compound.

Row | SMILES | MIC ([1]; nutrient agar pH 6.8, 30° C.) [µg/mL] | MIC ([1]; nutrient agar pH 8.2, 30° C.) [µg/mL] | MIC (Bacillus subtilis (Bs); nutrient agar pH 6.8, 30° C.) [µg/mL] | MIC (Bacillus subtilis (Bs); nutrient agar pH 8.2, 30° C.) [µg/mL] | MIC ([2]; nutrient agar pH 6.8, 30° C.) [µg/mL] | MIC ([2]; nutrient agar pH 8.2, 30° C.) [µg/mL] | MIC [3] [µg/mL] | MIC (Trichoderma viride (Tv)) [µg/mL] | MIC ([4]; nutrient agar pH 6.8, 30° C.) [µg/mL] | MIC ([4]; nutrient agar pH 8.2, 30° C.) [µg/mL] | MIC [5] [µg/mL] | MIC (Fusarium oxysporum (Fo)) [µg/mL] | Marine Antifouling Rating, 6 Week Test, Bottom Panel (marine organisms) | Marine Antifouling Rating, 6 Week Test, Top Panel (marine organisms) | Marine Antifouling Rating, 15 Week Test, Bottom Panel (marine organisms) | Marine Antifouling Rating, 15 Week Test, Top Panel (marine organisms)
1 | Cc1cccc(-n2nnnc2SCSC#N)c1 [VI, 1-(3-Methylphenyl)-5-thiomethylthiocyanato-1H-tetrazole] | 500 (≈ 1900 µM) | 500 (≈ 1900 µM) | < 10 | 25 (≈ 94.9 µM) | 500 (≈ 1900 µM) | 500 (≈ 1900 µM) | < 1 | 25 (≈ 94.9 µM) | 25 (≈ 94.9 µM) | 50 (≈ 190 µM) | < 1 | < 1 | 10 | 9 | 9 | 8
2 | N#CSCSc1nnnn1-c1ccc(Cl)cc1 [III, 1-(4-Chlorophenyl)-5-thiomethylthiocyanato-1H-tetrazole] | 25 (≈ 88.1 µM) | 50 (≈ 176 µM) | < 10 | 50 (≈ 176 µM) | 25 (≈ 88.1 µM) | 250 (≈ 881 µM) | 2.5 (≈ 8.81 µM) | 5 (≈ 17.6 µM) | 25 (≈ 88.1 µM) | 50 (≈ 176 µM) | 2.5 (≈ 8.81 µM) | 2.5 (≈ 8.81 µM) | 9 | 9 | 1 | 4
3 | N#CSCSc1nnnn1C1CCCCC1 [X, 1-(Cyclohexyl)-5-thiomethylthiocyanato-1H-tetrazole] | 500 (≈ 1960 µM) | 500 (≈ 1960 µM) | < 10 | 25 (≈ 97.9 µM) | 500 (≈ 1960 µM) | 500 (≈ 1960 µM) | < 1 | 50 (≈ 196 µM) | 25 (≈ 97.9 µM) | 50 (≈ 196 µM) | 5 (≈ 19.6 µM) | 5 (≈ 19.6 µM) | 10 | 9 | 8 | 4
4 | N#CSCSc1nnnn1-c1cccc(Cl)c1 [II, 1-(3-Chlorophenyl)-5-thiomethylthiocyanato-1H-tetrazole] | 500 (≈ 1760 µM) | 250 (≈ 881 µM) | 100 (≈ 352 µM) | 250 (≈ 881 µM) | 500 (≈ 1760 µM) | 500 (≈ 1760 µM) | < 10 | 25 (≈ 88.1 µM) | 250 (≈ 881 µM) | 100 (≈ 352 µM) | < 10 | < 10 | 10 | 9 | 6 | 9
